Among the data in ChEMBL document CHEMBL1909046, “DrugMatrix in vitro pharmacology data” are IC50 and Ki values, retold here.

A short description of assay [1]: DRUGMATRIX: Calcium Channel Type L, Benzothiazepine radioligand binding (ligand: [3H] Diltiazem). The class given is cell membranes, Rattus norvegicus, Wistar, Brain, Membrane. The conditions noted are these: Not Active = under 50% inhibition at 10 µM.
For assay [2], the target named is 5-hydroxytryptamine receptor 4 (Cavia porcellus, UniProt O70528). The class given is cell membranes, Dunkin-Hartley, Striatum, Membrane. Further: in other assays of this panel Not Active means under 50% inhibition at 10 µM.
Assay [3] concerns the target Sigma non-opioid intracellular receptor 1 (Homo sapiens, UniProt Q99720). The assay can be described thus: DRUGMATRIX: Sigma1 radioligand binding (ligand: [3H] Haloperidol). Format: cell membranes, Jurkat, Membrane. The following applies: jurkat; Not Active = under 50% inhibition at 10 µM.
The target in the next assay is D(3) dopamine receptor (Homo sapiens, UniProt P35462). The assay can be described thus: DRUGMATRIX: Dopamine D3 radioligand binding (ligand: [3H] Spiperone). The class given is cell membranes, CHO, Membrane. The following applies: cho.
Assay [4] has as its target T1, Amine oxidase [flavin-containing] A (Homo sapiens, UniProt P21397).
T1 sequence (P21397 whole entry): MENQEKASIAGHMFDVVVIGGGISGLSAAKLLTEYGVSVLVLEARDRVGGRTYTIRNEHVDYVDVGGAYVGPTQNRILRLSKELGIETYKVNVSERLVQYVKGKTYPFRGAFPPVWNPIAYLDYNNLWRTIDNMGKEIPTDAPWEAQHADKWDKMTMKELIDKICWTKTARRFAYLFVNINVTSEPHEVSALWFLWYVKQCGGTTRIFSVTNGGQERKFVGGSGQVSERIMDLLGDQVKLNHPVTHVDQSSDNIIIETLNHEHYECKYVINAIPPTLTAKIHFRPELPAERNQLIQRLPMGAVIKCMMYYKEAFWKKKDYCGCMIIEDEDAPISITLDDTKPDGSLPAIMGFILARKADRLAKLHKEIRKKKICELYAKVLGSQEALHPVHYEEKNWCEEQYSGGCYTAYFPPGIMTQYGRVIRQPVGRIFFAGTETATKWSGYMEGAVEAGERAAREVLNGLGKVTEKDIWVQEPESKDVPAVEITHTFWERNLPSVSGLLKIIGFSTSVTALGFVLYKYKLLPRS
As to the kind of experiment: DRUGMATRIX: Monoamine Oxidase MAO-A enzyme inhibition (substrate: Kynuramine). The following applies: bti-tn-5b1-4; Not Active = under 50% inhibition at 10 µM. Details: species or system BTI-TN-5B1-4.

Assay [5] is described as follows: DRUGMATRIX: Nicotinic Acetylcholine radioligand binding (ligand: [125I] Epibatidine). Format: cell membranes, Membrane. The following applies: imr-32; Not Active = under 50% inhibition at 10 µM.
The target of assay [6] is cGMP-specific 3',5'-cyclic phosphodiesterase (Homo sapiens, UniProt O76074). As to the kind of experiment: DRUGMATRIX: Phosphodiesterase PDE5 enzyme inhibition (substrate: [3H]cGMP + cGMP). The class given is tissue-based. The conditions noted are these: platelet; Not Active = under 50% inhibition at 10 µM.
Assay [7] deals with Tyrosine-protein kinase Fyn (Homo sapiens, UniProt P06241). As to the kind of experiment: biochemical. Format: cell-based, Insect cells. The conditions noted are these: insect cells.
In assay [8] the target is T2, 5-hydroxytryptamine receptor 1A (Rattus norvegicus, UniProt P19327). Further: in other assays of this panel Not Active means under 50% inhibition at 10 µM.
T2 sequence (P19327 whole entry): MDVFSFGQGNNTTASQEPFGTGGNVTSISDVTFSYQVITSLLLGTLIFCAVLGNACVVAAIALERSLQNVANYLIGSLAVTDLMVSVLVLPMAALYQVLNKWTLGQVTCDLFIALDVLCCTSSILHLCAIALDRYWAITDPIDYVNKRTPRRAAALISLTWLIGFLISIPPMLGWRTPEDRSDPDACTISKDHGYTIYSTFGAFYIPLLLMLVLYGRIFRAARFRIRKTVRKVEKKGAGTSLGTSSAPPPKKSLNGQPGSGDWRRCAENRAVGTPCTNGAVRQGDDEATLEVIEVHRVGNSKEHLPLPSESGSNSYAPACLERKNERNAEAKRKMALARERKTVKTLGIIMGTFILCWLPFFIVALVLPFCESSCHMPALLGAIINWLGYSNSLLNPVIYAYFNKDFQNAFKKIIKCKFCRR
Format: cell membranes, Membrane. The conditions noted are these: cho-k1.

A word on the IC50: it is the point on the concentration scale where inhibition reaches its midpoint. Usually Ki stands for the equilibrium dissociation constant of an inhibitor or competing ligand from its target.

Sigma non-opioid intracellular receptor 1, sequence (Q99720 whole entry): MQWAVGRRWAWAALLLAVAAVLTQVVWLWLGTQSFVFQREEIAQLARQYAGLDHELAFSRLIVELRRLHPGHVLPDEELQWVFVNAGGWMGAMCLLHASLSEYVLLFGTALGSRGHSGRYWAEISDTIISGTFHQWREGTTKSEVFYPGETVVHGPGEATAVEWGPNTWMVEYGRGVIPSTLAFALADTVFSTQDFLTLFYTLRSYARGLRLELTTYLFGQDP
5-hydroxytryptamine receptor 4, sequence (O70528 whole entry): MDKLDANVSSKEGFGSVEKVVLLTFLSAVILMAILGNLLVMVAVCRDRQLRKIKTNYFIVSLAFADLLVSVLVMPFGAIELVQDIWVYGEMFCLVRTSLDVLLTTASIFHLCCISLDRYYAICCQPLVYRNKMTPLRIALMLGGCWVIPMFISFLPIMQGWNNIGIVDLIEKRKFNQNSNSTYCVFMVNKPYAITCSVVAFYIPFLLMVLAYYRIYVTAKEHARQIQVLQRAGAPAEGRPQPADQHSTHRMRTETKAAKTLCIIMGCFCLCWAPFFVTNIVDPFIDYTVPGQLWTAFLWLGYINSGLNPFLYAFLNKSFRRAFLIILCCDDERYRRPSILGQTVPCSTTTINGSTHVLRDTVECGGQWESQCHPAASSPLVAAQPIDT
Tyrosine-protein kinase Fyn, sequence (P06241 whole entry): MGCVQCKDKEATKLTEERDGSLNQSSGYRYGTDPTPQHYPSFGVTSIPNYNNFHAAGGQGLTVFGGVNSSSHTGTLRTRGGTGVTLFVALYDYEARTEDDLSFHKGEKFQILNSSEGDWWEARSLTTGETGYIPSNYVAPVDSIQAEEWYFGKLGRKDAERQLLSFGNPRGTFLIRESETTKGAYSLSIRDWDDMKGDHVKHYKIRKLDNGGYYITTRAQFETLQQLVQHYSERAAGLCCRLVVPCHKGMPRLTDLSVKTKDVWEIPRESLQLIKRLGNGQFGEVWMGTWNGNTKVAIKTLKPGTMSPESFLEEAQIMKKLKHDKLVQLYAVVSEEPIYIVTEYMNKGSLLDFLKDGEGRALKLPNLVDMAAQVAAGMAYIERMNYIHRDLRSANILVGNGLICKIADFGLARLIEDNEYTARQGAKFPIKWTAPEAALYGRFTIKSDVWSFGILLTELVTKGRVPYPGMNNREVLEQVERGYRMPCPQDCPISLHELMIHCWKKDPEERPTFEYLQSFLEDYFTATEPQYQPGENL
D(3) dopamine receptor, sequence (P35462 whole entry): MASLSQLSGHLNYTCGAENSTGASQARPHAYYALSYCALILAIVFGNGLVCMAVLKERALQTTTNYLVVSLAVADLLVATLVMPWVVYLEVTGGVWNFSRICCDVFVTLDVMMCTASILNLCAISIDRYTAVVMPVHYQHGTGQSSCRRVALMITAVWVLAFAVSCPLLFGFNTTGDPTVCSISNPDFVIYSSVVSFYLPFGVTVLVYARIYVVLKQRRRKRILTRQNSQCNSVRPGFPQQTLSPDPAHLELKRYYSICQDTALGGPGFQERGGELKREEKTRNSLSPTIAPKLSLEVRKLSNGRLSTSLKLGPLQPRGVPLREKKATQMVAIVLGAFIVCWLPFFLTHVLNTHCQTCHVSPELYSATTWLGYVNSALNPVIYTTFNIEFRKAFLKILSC

As to `CC(C)c1nc(CN(C)C(=O)N[C@H](C(=O)N[C@@H](Cc2ccccc2)C[C@H](O)[C@H](Cc2ccccc2)NC(=O)OCc2cncs2)C(C)C)cs1` [RITONAVIR], the IC50 result (in [1]; in assay [2]; in [3]; at D(3) dopamine receptor; in assay [4]; in assay [5]) was “Not Active” each time. The IC50 result in [6], in assay [7] and in [8] was “Not Active” each time. Further, the Ki entry in assay [1] and in [5] was “Not Active” throughout.
As for `CC(C)CC(N(C)C)C1(c2ccc(Cl)cc2)CCC1` (centres undefined) [SIBUTRAMINE], the half-inhibitory concentration (IC50) in assay [1] (read-out: IC50) was 809 nM; in [2], “Not Active”; in assay [3] it was “Not Active”; at D(3) dopamine receptor it was “Not Active”; in [4], “Not Active”; in [5] it was “Not Active”. In addition, the half-inhibitory concentration (IC50) entry in assay [6], in assay [7] and in [8] was “Not Active” in each case. For the same compound, the inhibitory constant (Ki) in assay [1] (read-out: Ki) is 719 nM; in assay [5], “Not Active”.
In the case of `[H]/N=C(/N)N[C@H]1[C@H](O)[C@@H](O)[C@H](O[C@@H]2O[C@@H](C)[C@](O)(C=O)[C@H]2O[C@@H]2O[C@@H](CO)[C@H](O)[C@@H](O)[C@@H]2NC)[C@@H](N/C(N)=N\[H])[C@@H]1O` [STREPTOMYCIN], the concentration for half-maximal inhibition (IC50) entry (in assay [1]; in [2]; in assay [3]; on D(3) dopamine receptor; in assay [4]; in assay [5]) was “Not Active” each time. Moreover, the concentration for half-maximal inhibition (IC50) entry in assay [6], in assay [7] and in assay [8] was “Not Active” in each case. For the same compound, the Ki entry in assay [1] and in [5] was “Not Active” in each case.
Turning to `COc1cc(NS(=O)(=O)c2ccc(N)cc2)nc(OC)n1` [SULFADIMETHOXINE], the IC50 result (in [1]; in assay [2]; in assay [3]; on D(3) dopamine receptor; in assay [4]; in assay [5]) was “Not Active” in each case. Besides, the IC50 entry in assay [6], in assay [7] and in assay [8] was “Not Active” in each case. The inhibition constant Ki result in [1] and in [5] was “Not Active” throughout.
Consider `Cc1cc(C)nc(NS(=O)(=O)c2ccc(N)cc2)n1` [SULFAMETHAZINE], for which the IC50 entry (in assay [1]; in assay [2]; in assay [3]; on D(3) dopamine receptor; in [4]; in [5]) was “Not Active” each time. Moreover, the half-maximal inhibitory concentration (IC50) entry in [6], in [7] and in [8] was “Not Active” each time. In addition, the inhibitory constant (Ki) result in assay [1] and in assay [5] was “Not Active” throughout.
Turning to `C[C@]1(Cn2ccnn2)[C@H](C(=O)O)N2C(=O)C[C@H]2S1(=O)=O` [TAZOBACTAM], the half-maximal inhibitory concentration (IC50) result (in assay [1]; in assay [2]; in assay [3]; on D(3) dopamine receptor; in [4]; in assay [5]) was “Not Active” in each case. In addition, the half-inhibitory concentration (IC50) entry in assay [6], in assay [7] and in [8] was “Not Active” throughout. For the same compound, the inhibition constant (Ki) entry in [1] and in assay [5] was “Not Active” throughout.
For the compound `CN1C(C(=O)Nc2ccccn2)=C(O)c2sccc2S1(=O)=O` [TENOXICAM], the IC50 entry (in [1]; in assay [2]; in [3]; at D(3) dopamine receptor; in assay [4]; in [5]) was “Not Active” each time. Besides, the IC50 result in assay [6], in assay [7] and in [8] was “Not Active” each time. Besides, the Ki result in [1] and in assay [5] was “Not Active” each time.
Consider `O=C1CCC(N2C(=O)c3ccccc3C2=O)C(=O)N1` (centres undefined) [THALIDOMIDE], for which the 50% inhibitory concentration (IC50) result (in assay [1]; in assay [2]; in assay [3]; at D(3) dopamine receptor; in assay [4]; in assay [5]) was “Not Active” in each case. For the same compound, the IC50 entry in assay [6], in assay [7] and in [8] was “Not Active” in each case. The Ki entry in [1] and in assay [5] was “Not Active” in each case.
In the case of `Cc1cccc(Nc2ccncc2S(=O)(=O)NC(=O)NC(C)C)c1` [TORSEMIDE], the IC50 result (in [1]; in [2]; in [3]; on D(3) dopamine receptor; in assay [4]; in assay [5]) was “Not Active” throughout. The concentration for half-maximal inhibition (IC50) entry in assay [6], in assay [7] and in assay [8] was “Not Active” each time. For the same compound, the Ki entry in assay [1] and in assay [5] was “Not Active” in each case.
Regarding `CC(C)C[C@H](NC(=O)[C@@H](O)[C@H](N)Cc1ccccc1)C(=O)O` [UBENIMEX], the IC50 result (in assay [1]; in assay [2]; in [3]; on D(3) dopamine receptor; in assay [4]; in [5]) was “Not Active” each time. In addition, the IC50 result in [6], in [7] and in assay [8] was “Not Active” each time. The Ki result in assay [1] and in assay [5] was “Not Active” throughout.
In the case of `Cc1onc(-c2ccccc2)c1-c1ccc(S(N)(=O)=O)cc1` [VALDECOXIB], the IC50 result (in assay [1]; in [2]; in [3]; on D(3) dopamine receptor; in assay [4]; in [5]) was “Not Active” each time. The half-inhibitory concentration (IC50) entry in assay [6], in assay [7] and in assay [8] was “Not Active” in each case. In addition, the inhibition constant (Ki) result in assay [1] and in [5] was “Not Active” throughout.
On to `CC[C@]1(O)C[C@@H]2CN(CCc3c([nH]c4ccccc34)[C@@](C(=O)OC)(c3cc4c(cc3OC)N(C)[C@H]3[C@@](O)(C(=O)OC)[C@H](OC(C)=O)[C@]5(CC)C=CCN6CC[C@]43[C@@H]65)C2)C1` [VINBLASTINE], for which the IC50 entry (in [1]; in assay [2]; in assay [3]; at D(3) dopamine receptor; in assay [4]; in assay [5]) was “Not Active” throughout. Also, the IC50 entry in [6], in assay [7] and in [8] was “Not Active” throughout. The Ki entry in [1] and in assay [5] was “Not Active” each time.
Turning to `CC(=O)CC(c1ccccc1)c1c(O)c2ccccc2oc1=O` (centres undefined) [WARFARIN], the IC50 entry (in assay [1]; in assay [2]; in assay [3]; at D(3) dopamine receptor; in [4]; in [5]) was “Not Active” each time. Besides, the IC50 entry in [6], in assay [7] and in [8] was “Not Active” each time. For the same compound, the inhibitory constant (Ki) entry in assay [1] and in assay [5] was “Not Active” each time.
For `C[C@@H](N)[C@H]1CC[C@H](C(=O)Nc2ccncc2)CC1` [Y-27632], the IC50 result (in assay [1]; in assay [2]; in assay [3]; at D(3) dopamine receptor; in assay [4]; in [5]) was “Not Active” in each case. Besides, the IC50 result in assay [6], in assay [7] and in assay [8] was “Not Active” each time. Also, the inhibition constant Ki result in assay [1] and in assay [5] was “Not Active” throughout.
